Holding throughout (experiment): Time-dependent IC50 COX inhibition assay
What all share (type): biochemical, murine

One assay concerns the target T1, mCOX-2^V349L (Mus musculus, UniProt Q05769, V335L).
T1 construct: made in house; host or cells: Sf9 insect cells (baculovirus, pVL1393)
T1 sequence (Q05769 18-604 V335L): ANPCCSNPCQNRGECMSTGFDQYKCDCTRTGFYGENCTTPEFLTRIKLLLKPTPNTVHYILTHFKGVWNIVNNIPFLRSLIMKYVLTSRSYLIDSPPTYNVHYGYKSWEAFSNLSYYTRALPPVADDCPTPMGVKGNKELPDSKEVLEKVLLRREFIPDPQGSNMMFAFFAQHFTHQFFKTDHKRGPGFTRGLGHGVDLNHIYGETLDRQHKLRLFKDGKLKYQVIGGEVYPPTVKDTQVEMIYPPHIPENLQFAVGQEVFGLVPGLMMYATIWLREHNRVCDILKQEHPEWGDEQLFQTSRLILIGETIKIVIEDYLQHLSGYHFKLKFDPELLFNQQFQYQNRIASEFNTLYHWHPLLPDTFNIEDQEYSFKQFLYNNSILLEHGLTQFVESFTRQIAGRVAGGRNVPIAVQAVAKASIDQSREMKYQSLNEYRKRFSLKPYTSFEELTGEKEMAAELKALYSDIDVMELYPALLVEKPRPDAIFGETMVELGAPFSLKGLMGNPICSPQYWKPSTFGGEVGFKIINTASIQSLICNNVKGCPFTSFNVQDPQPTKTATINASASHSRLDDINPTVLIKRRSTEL
Here is the method: (§1) These mutated genes were used to assemble baculoviral constructs for large-scale expression in Sf9 cells. Purification of the expressed COX-2 protein was performed through traditional cellular fractionation and classical column chromatography. Activity or inhibition assays were performed in 100 mM Tris-HCl buffer containing 500 μM phenol, with hematin-reconstituted protein. Quantification of cyclooxygenase activity was performed by monitoring substrate (arachidonate or oxygen) consumption in a thermostatted cuvette at 37° C. using a polarographic electrode with a 5300 oxygen monitor (Yellow Springs Instrument Co. Inc., Yellow Springs, Ohio, United States of America). All inhibitors and substrates were solubilized in dimethyl sulfoxide (DMSO). Activity or inhibition assays were performed in 100 mM Tris-HCl buffer containing 500 μM phenol, with hematin-reconstituted protein. Maximal reaction velocity data were obtained from the linear portion of the oxygen uptake curves, and the data were analyzed by nonlinear regression with Prism 4.0 (GraphPad Software, San Diego, Calif., United States of America).
(§2) Time-dependent inhibition reactions were performed by pre-incubating the inhibitor and enzyme for 17 minutes at 25° C., followed by 3 minutes at 37° C. prior to the addition of 50 μM [1-^14C]-AA for 30 seconds at 37° C. Assays were terminated and analyzed for substrate consumption by thin layer chromatography as previously described (Kalgutkar et al., 2000a).
(§3) Maximal reaction velocity data were obtained from the linear portion of the oxygen uptake curves, and the data were analyzed by nonlinear regression. Instantaneous inhibition assays were performed with substrate and inhibitor added prior the initiation of the reaction by addition of protein. Time-dependent screening assays were performed by pre-incubating the inhibitor and enzyme for 17 minutes at 25° C., followed by 3 minutes at 37° C. prior to the addition of 50 μM [1-^14C]-arachidonic acid (AA) for 30 seconds at 37° C.
(§4) Assays were terminated and analyzed for substrate consumption by thin layer chromatography. […] Time-dependent COX inhibition reactions were pre-incubated at 37° C. for varying lengths of time (0-30 minutes) with various concentrations of inhibitor. All reactions were performed with [1-^14C]-AA for 30 seconds at 37° C.; reactions were terminated and analyzed as described above.
(§5) The COX reaction was allowed to proceed for 30 seconds before termination.

The target of a further assay is T2, mCOX-2^V349A (Mus musculus, UniProt Q05769, V335A).
T2 construct: made in house; host or cells: Sf9 insect cells (baculovirus, pVL1393)
T2 sequence (Q05769 18-604 V335A): T1 sequence (Q05769 18-604 V335L) with L318A
As for the experimental part:
as §1, §2, §3, §4, §5

In the next assay the target is T3, mCOX-2^V349I (Mus musculus, UniProt Q05769, V335I).
T3 construct: made in house; host or cells: Sf9 insect cells (baculovirus, pVL1393)
T3 sequence (Q05769 18-604 V335I): T1 sequence (Q05769 18-604 V335L) with L318I
As to conditions: 20 min pre-incubation, then 50 μM AA for 30 s. As for the experimental part: as §1, §2, §3, §4, §5

Where [1] appears, read: 20 min pre-incubation, then 50 μM AA for 30 s.

Numbering of substitutions follows the chain as printed. pIC50: −log10 of the molar value.

`COc1ccc2c(c1)c(CC(=O)O)cn2C(=O)c1ccc(Cl)cc1` [DM-INDO, 2-Des-methylindomethacin]: the “inhibition in the time-dependent IC50 assay” value against mCOX-2^V349L and against mCOX-2^V349A was “less than 20%” in each case. For the same compound, the negative logarithm of the IC50 (pIC50) was less than 4.80 against mCOX-2^V349L (setting [1]), less than 4.80 at mCOX-2^V349A (setting [1]) and 5.52 against mCOX-2^V349I.

For orientation: pIC50 means the negative decadic logarithm of the IC50, by convention in mol/L. A high value points to a low IC50.

For the origin of these results see patent US8168656B2, “Indoleacetic acid and indenacetic acid derivatives as therapeutic agents with reduced gastrointestinal toxicity” (Vanderbilt University, priority 2009, dated 2012).
